According to patent US20260125376A1, “IRREVERSIBLE INACTIVATORS TARGETING ARAF/MEK COMPLEXES” (Dana-Farber Cancer Institute, Inc., priority 2022, published 2026):
pIC50: −log10 of the molar value. One block for each compound: values may come before it.

Key:
ARAF/MEK protein complex = ARAF/MEK protein complex (Homo sapiens, UniProt P10398+Q02750); test: Mass spectrometry-based assay for covalent labeling of ARAF; type: binding; conditions: ARAF/MEK protein complex incubated at room temperature for 2 hours with inhibitor at concentration ratio 1:10; LC-MS of denatured protein
Procedure: Covalent labeling of ARAF by compounds of the invention was measured using a mass spectrometry-based assay. The ARAF/MEK protein complex was incubated at room temperature for 2 hours with desired inhibitors at a concentration ratio of 1:10. Following incubation, proteins were denatured in 8 M urea. Formic acid was added to a final 1% and desalted over C4 resin prior to LCMS analysis. Denatured proteins (10 μg per sample) were analyzed by LC-MS via a U3000 RSLC coupled to an Orbitrap Eclipse mass spectrometer (Thermo Scientific, Waltham, MA, USA). Proteins were eluted off a ES811A (Thermo Scientific, Waltham, MA, USA) 15-cm C4 column with a 5-50% gradient of MeCN in 1% FA. MS scans (range=600-2000 m/z) were obtained in the orbitrap at 120,000 resolution with 4 microscans. The Xtract function in Freestyle software (Thermo Scientific, Waltham, MA, USA) was used to deconvolute charge states averaged across the elution window. Fractional labeling of ARAF was measured by quantitating the unlabeled ARAF and ARAF shifted by the mass expected for formation of a covalent adduct of ARAF with the compound of interest.

[1] = target: T1, ARAF/14-3-3 chimera (residues 274-606 of human ARAF fused to human 14-3-3 epsilon) (Homo sapiens, UniProt P10398+Q02750, D190N/G300S/Y301D/Y302D); test: TR-FRET-based kinase assay: inhibition of phosphorylation of MEK1 by ARAF; type: biochemical; conditions: 250 nM MEK1(D190N), 75 nM ARAF/14-3-3 chimera, 30 minutes incubation with inhibitor, 200 μM ATP, 1 hour, HTRF
T1 construct: residues 274-606 of human ARAF, including the kinase domain and complete C-terminal region; made in house; host or cells: Sf9 insect cells (baculovirus)
Procedure: The ability of compounds of the invention to inhibit phosphorylation of MEK by ARAF was measured in a TR-FRET-based kinase assay using purified ARAF and MEK proteins. An active, chimeric ARAF protein was employed for this study. This ARAF protein included residues 274-606 of human ARAF, including the kinase domain and complete C-terminal region, fused to human 14-3-3 epsilon (ARAF/14-3-3 chimera). Amino acids corresponding to residues […] of human ARAF (with the sequence Ser-Gly-Tyr-Tyr) were mutated to Ser-Ser-Asp-Asp in this ARAF/14-3-3 chimera. […] In this assay, the ability of compounds of interest to inhibit phosphorylation of MEK1 by ARAF was measured by incubating 250 nM unphosphorylated full-length MEK1(D190N) with 75 nM ARAF/14-3-3 chimera and inhibitor of interest at a series of 12 concentrations (from 10 μM to 1.3 nM) for 30 minutes in reaction buffer (50 mM HEPES pH 7.0, 5 mM MgCl2, 1 mM MnCl2, 0.01% BSA, 2 mM TCEP, 0.1 mM NaVO4) at room temperature. Reactions were initiated by addition of 200 μM ATP and allowed to proceed for 1 hour. Reactions were quenched using detection buffer from HTRF-KinEASE kit (Cisbio). Signal was read with a PHERAstar plate reader (excitation=337 nm, emission=620 nm and 665 nm). IC50 values were determined using Graphpad Prism software from the 12 point concentration-response data using a three-parameter dose-response fit with the Hill slope constrained to −1.

T1 sequence (P10398 274-606 G300S/Y301D/Y302D limits assumed): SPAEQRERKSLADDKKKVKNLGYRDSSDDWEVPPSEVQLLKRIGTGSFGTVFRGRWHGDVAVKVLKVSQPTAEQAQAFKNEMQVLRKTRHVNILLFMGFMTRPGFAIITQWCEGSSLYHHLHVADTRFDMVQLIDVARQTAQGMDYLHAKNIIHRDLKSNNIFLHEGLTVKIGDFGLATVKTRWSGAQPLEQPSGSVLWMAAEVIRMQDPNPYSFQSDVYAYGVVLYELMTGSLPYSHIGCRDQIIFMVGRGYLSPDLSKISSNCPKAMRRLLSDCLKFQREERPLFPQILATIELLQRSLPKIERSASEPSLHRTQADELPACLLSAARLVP
T1 sequence (Q02750 whole entry D190N, the tested form may be a part): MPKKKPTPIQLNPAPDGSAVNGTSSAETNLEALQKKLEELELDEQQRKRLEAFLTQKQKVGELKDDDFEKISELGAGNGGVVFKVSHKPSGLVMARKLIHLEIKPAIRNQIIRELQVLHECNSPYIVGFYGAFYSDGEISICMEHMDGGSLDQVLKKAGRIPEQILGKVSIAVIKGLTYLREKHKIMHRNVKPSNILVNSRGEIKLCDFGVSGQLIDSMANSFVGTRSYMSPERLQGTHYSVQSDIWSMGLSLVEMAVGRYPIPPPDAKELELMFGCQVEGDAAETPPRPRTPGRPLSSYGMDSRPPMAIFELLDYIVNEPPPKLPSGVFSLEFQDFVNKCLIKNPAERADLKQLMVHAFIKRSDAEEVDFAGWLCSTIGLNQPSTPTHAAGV
ARAF/MEK protein complex, sequence (P10398 whole entry): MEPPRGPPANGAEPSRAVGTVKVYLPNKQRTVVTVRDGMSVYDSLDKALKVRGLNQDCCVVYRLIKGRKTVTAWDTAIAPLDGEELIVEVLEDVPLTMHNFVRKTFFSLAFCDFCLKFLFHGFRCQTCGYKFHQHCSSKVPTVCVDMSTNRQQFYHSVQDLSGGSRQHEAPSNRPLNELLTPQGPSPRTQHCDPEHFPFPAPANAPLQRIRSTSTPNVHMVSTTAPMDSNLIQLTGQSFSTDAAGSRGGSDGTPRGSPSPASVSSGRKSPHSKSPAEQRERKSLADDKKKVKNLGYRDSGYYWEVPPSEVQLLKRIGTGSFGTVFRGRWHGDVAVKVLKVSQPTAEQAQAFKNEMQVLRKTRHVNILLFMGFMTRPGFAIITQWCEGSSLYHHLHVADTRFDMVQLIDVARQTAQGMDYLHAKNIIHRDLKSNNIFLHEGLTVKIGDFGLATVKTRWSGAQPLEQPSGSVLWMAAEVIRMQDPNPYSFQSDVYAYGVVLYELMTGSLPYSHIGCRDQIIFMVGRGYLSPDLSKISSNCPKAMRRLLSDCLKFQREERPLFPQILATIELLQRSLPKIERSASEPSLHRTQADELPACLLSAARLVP
ARAF/MEK protein complex, sequence (Q02750 whole entry): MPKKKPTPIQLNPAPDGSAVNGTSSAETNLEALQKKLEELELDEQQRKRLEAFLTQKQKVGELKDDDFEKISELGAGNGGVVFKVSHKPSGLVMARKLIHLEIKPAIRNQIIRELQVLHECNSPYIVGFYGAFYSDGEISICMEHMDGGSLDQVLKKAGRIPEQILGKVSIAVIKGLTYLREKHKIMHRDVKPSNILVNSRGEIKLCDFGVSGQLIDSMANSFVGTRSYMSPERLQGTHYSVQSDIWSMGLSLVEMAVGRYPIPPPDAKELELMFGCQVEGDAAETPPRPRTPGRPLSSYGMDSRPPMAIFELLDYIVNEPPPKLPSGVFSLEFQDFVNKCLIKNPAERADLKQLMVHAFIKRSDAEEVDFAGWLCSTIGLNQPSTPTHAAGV

Structure (SMILES): Cc1c(=O)n(C)c(Nc2ccc(I)cc2F)c2c(=O)n(C3CC3)c(=O)n(-c3cccc(NC(=O)CCl)c3)c12 [Example 11, 2-Chloro-N-(3-(3-cyclopropyl-5-((2-fluoro-4-iodophenyl)amino)-6,8-dimethyl-2,4,7-trioxo-3,4,6,7-tetrahydropyrido[4,3-d]pyrimidin-1(2H)-yl)phenyl)acetamide]
% labeling (covalent labeling of ARAF) (ARAF/MEK protein complex): 100%
pIC50 [1]: 6.31

Structure (SMILES): O=C(CCl)Nc1ccc(CNC(=O)c2ccc(F)c(F)c2Nc2ccc(I)cc2F)cc1 [Example 6, N-(4-(2-Chloroacetamido)benzyl)-3,4-difluoro-2-((2-fluoro-4-iodophenyl)amino)benzamide]
% labeling (covalent labeling of ARAF) (ARAF/MEK protein complex): 40%

Structure (SMILES): Cn1cnc2c(F)c(Nc3ccc(Br)cc3Cl)c(C(=O)NCc3ccc(NC(=O)CCl)cc3)cc21 [Example 8, 5-((4-Bromo-2-chlorophenyl)amino)-N-(4-(2-chloroacetamido)benzyl)-4-fluoro-1-methyl-1H-benzo[d]imidazole-6-carboxamide]
% labeling (covalent labeling of ARAF) (ARAF/MEK protein complex): 40%

Structure (SMILES): C=CC(=O)Nc1ccc(CNC(=O)c2ccc(F)c(F)c2Nc2ccc(I)cc2F)cc1 [Example 5, N-(4-Acrylamidobenzyl)-3,4-difluoro-2-((2-fluoro-4-iodophenyl)amino)benzamide]
% labeling (covalent labeling of ARAF) (ARAF/MEK protein complex): 10%

Structure (SMILES): C=C(F)C(=O)Nc1cccc(-n2c(=O)n(C3CC3)c(=O)c3c(Nc4ccc(I)cc4F)n(C)c(=O)c(C)c32)c1 [Example 12, N-(3-(3-Cyclopropyl-5-((2-fluoro-4-iodophenyl)amino)-6,8-dimethyl-2,4,7-trioxo-3,4,6,7-tetrahydropyrido[4,3-d]pyrimidin-1(2H)-yl)phenyl)-2-fluoroacrylamide]
% labeling (covalent labeling of ARAF) (ARAF/MEK protein complex): 100%
pIC50 [1]: 6.68

Structure (SMILES): C=CC(=O)Nc1ccc(CNC(=O)c2cc3c(ncn3C)c(F)c2Nc2ccc(Br)cc2Cl)cc1 [Example 7, N-(4-Acrylamidobenzyl)-5-((4-bromo-2-chlorophenyl)amino)-4-fluoro-1-methyl-1H-benzo[d]imidazole-6-carboxamide]
% labeling (covalent labeling of ARAF) (ARAF/MEK protein complex): 0%

Structure (SMILES): COC(=O)c1cc2c(ncn2Cc2ccc(NC(=O)CCl)cc2)c(F)c1Nc1ccc(Br)cc1Cl [Example 10, Methyl 5-((4-bromo-2-chlorophenyl)amino)-1-(4-(2-chloroacetamido)benzyl)-4-fluoro-1H-benzo[d]imidazole-6-carboxylate]
% labeling (covalent labeling of ARAF) (ARAF/MEK protein complex): 75%

Now from value to compound:

% labeling (covalent labeling of ARAF) (ARAF/MEK protein complex): 85%
pIC50 [1]: 6.89
Structure (SMILES): C=CC(=O)Nc1cccc(Cc2c(C)c3ccc(Oc4ncccn4)cc3oc2=O)c1F [Example 3, N-(2-Fluoro-3-((4-methyl-2-oxo-7-(pyrimidin-2-yloxy)-2H-chromen-3-yl)methyl)phenyl)acrylamide]

% labeling (covalent labeling of ARAF) (ARAF/MEK protein complex): 50%
Structure (SMILES): Cc1c(Cc2ccc(NC(=O)CCl)cc2F)c(=O)oc2cc(Oc3ncccn3)ccc12 [Example 2, 2-Chloro-N-(3-fluoro-4-((4-methyl-2-oxo-7-(pyrimidin-2-yloxy)-2H-chromen-3-yl)methyl)phenyl)acetamide]

% labeling (covalent labeling of ARAF) (ARAF/MEK protein complex): 0%
Structure (SMILES): C=CC(=O)Nc1ccc(Cn2cnc3c(F)c(Nc4ccc(Br)cc4Cl)c(C(=O)OC)cc32)cc1 [Example 9, Methyl 1-(4-acrylamidobenzyl)-5-((4-bromo-2-chlorophenyl)amino)-4-fluoro-1H-benzo[d]imidazole-6-carboxylate]

% labeling (covalent labeling of ARAF) (ARAF/MEK protein complex): 100%
pIC50 [1]: 7.22
Structure (SMILES): Cc1c(Cc2cccc(NC(=O)CCl)c2F)c(=O)oc2cc(Oc3ncccn3)ccc12 [Example 4, 2-Chloro-N-(2-fluoro-3-((4-methyl-2-oxo-7-(pyrimidin-2-yloxy)-2H-chromen-3-yl)methyl)phenyl)acetamide]
